From patent US20240285670A1, “THERAPEUTIC TREATMENT OF TUMORS BY BLOCKING THE HEME SYNTHESIS-EXPORT AXIS” (Università degli Studi di Torino, priority 2021, published 2024)

Tests used:
[1] = test system: ALAS1; test: qRT-PCR analysis of ALAS1 expression in SHSY5Y cells; format: cell-based, human; details: 5 mM ALA for 15 hours vs non-treated
Description: (A) Heme content in SHSY5Y cells non-treated (NT) or treated with 5 mM ALA for 15 hours. Values are expressed as pmol heme/mg protein. Data represent mean±SEM, n=3; *=P<0.05. (B, C) qRT-PCR analysis of the expression of ALAS1 (B) and FLVCR1a (C) in SHSY5Y cells non-treated (NT) or treated with 5 mM ALA for 15 hours. Transcript abundance, normalized to beta-actin mRNA expression, is expressed as a fold increase over a calibrator sample. Data represent mean±SEM, n=4. For statistical analyses, an unpaired Student's t-test was used; *p<0.05. (D) qRT-PCR analysis of the expression of ALAS1 in SKCO1 cells untreated (NT) or treated with 5 mM ALA for 24 hours. Transcript abundance, normalized to beta-actin mRNA expression, is expressed as a fold increase over a calibrator sample. Data represent mean±SEM, n=5. […] Band intensities were measured by densitometry and normalized to beta-actin expression. […] (F) Proliferation of SHSY5Y cells assessed by crystal violet staining at different time points (starting from the day after plating, named “day 0”). Treatment with 5 mM ALA occurred at “day 0” and cells were monitored until the end of the experiment without medium refresh. […] (G) SKCO1 cells viability measured by the CellTiter-Fluor Cell Viability Assay (Promega, Madison, WI USA, catalog n°G6080) at different time points, starting from the day after plating (named “day 0”), as a readout of cell proliferation. […]

[2] = test system: SKCO1 cells; test: TCA cycle flux in SKCO1 cells; format: cell-based, human; details: FLVCR1a-silenced vs scramble shRNA SKCO1 cells
Text: TCA cycle flux is reported in the centre of the figure and expressed as pmol CO2/h/mg protein. Data represent mean±SEM, n=3. For statistical analyses, an unpaired Student's t-test was used. **=p<0.01. Moreover, TCA cycle enzymes activities are reported in boxes and expressed as mU/mg mitochondrial proteins. Data represent mean±SEM, n=3. For statistical analyses, an unpaired Student's t-test was used; *=p<0.05, ***=p<0.001. […] Results are expressed as pmol CO2/h/mg protein. Data represent mean±SEM, n=3. For statistical analyses, an unpaired Student's t-test was used; *=p<0.05, **=p<0.01.
The glucose flux through TCA cycle was measured by radiolabeling cells with 2 μCi/ml [6-^14C]-glucose (55 mCi/mmol; PerkinElmer, Waltham, MA, USA, catalog n° NEC045X). Cell suspensions were incubated for 1 hour in a closed experimental system to trap the ^14CO2 developed from [^14C]-glucose. The reaction was stopped by injecting 0.5 ml of 0.8N HClO4. The amount of glucose transformed into CO2 through the TCA cycle was calculated as described (Riganti et al., 2004) and expressed as pmoles CO2/h/mg cell proteins.

Cl.NCC(=O)CCC(=O)O [5-ALA, 5-Aminolevulinic acid hydrochloride]
ALAS1 transcript levels [1]: reduced

FLVCR1a shRNA: shRNA specifically down-regulating FLVCR1a without targeting FLVCR1b; pLKO.1 lentiviral clone TRCN0000059599, antisense SEQ ID No.: 2 (antisense TTGCTAATGATGCTGTACTGG; sense CCAGTACAGCATCATTAGCAA)
TCA cycle flux [2]: Increased TCA cycle flux
